We go through 31 compounds from ChEMBL document CHEMBL1131802, “Design and synthesis of beta-carboxamido phosphonates as potent inhibitors of imidazole glycerol phosphate dehydratase” (Bioorg Med Chem Lett, 1999).

The target of assay [1] is T1, Imidazoleglycerol-phosphate dehydratase (Cryptococcus neoformans var. neoformans B-3501A, UniProt P0CO23). Briefly: Inhibitory concentration against imidazole glycerol phosphate dehydratase (IGPD) from Cryptococcus neoformans.
The target in assay [2] is Imidazoleglycerol-phosphate dehydratase (Cryptococcus neoformans var. neoformans B-3501A) (UniProt P0CO23). Description: Kinetic constant for the inhibition of imidazole glycerol phosphate dehydratase (IGPD).
In assay [3] the target is T1, Imidazoleglycerol-phosphate dehydratase. Description: Binding affinity imidazole glycerol phosphate dehydratase (IGPD) obtained from Cryptococcus neoformans.

Imidazoleglycerol-phosphate dehydratase (Cryptococcus neoformans var. neoformans B-3501A), sequence (P0CO23 whole entry, looked up): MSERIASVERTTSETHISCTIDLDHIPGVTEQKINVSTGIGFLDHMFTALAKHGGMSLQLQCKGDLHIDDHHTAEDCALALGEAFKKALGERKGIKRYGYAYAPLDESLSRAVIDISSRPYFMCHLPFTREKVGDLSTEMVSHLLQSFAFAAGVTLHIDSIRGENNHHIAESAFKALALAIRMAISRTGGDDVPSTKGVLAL
T1 sequence (P0CO23 whole entry, looked up): as above

For `CC1(C)CC(=O)OC1CC(=O)NC(Cn1cncn1)CP(=O)(O)O` (centres undefined), the IC50 (as a rule, the concentration needed to halve the response being measured) in assay [1] amounted to 2900 nM.
On the same count and under the same terms, next, `O=C(CCc1cccc([N+](=O)[O-])c1)NC(Cn1cncn1)CP(=O)(O)O` (centres undefined): 1500 nM.
Regarding `O=C(CCc1ccccc1)NC(Cn1cncn1)CP(=O)(O)O` (centres undefined), the Kis in assay [2] was found to be 1.14 µM. Besides, inhibition in assay [1] was half-maximal at 960 nM (IC50). For the same compound, the Ki (usually the dissociation constant of the complex between target and ligand, obtained from inhibition or displacement) in assay [3] stood at 270 nM.
For `C/C=C/C(=O)NC(Cn1cncn1)CP(=O)(O)O` (centres undefined) the same measures were 5.6 µM, 4000 nM and 1450 nM.
For `CC(C)(C)CC(=O)NC(Cn1cncn1)CP(=O)(O)O` (centres undefined) the same measures were 5 µM, 4800 nM and 1130 nM.
`O=C(CCC(=O)c1ccccc1)NC(Cn1cncn1)CP(=O)(O)O` (centres undefined) displayed a concentration for half-maximal inhibition (IC50) in assay [1] of 20000 nM. That is a double-digit micromolar value.
`CCC(=O)NC(Cn1cncn1)CP(=O)(O)O` (centres undefined): the Kis in assay [2] is 9 µM. The compound further registered an IC50 in assay [1] of 6100 nM. Besides, in assay [3], the Ki is 1200 nM.
In turn, `O=C(NC(Cn1cncn1)CP(=O)(O)O)c1ccccc1O` (centres undefined) had a Kis in assay [2] of 22 µM. The same compound returned an IC50 in assay [1] of 16000 nM. Also, in assay [3], the Ki amounted to 3500 nM.
For `O=C(NC(Cn1cncn1)CP(=O)(O)O)c1ccco1` (centres undefined) the same measures were 33 µM, more than 50000 nM and 7500 nM.
As to `CC(=O)NC(Cn1cncn1)CP(=O)(O)O` (centres undefined), in assay [2], the Kis was found to be 6.1 µM. Also, the IC50 in assay [1] amounted to 3900 nM. The compound also came in with a Ki in assay [3] of 800 nM.
Consider `O=P(O)(O)CC(O)Cn1cncn1` (centres undefined), for which the inhibition constant (Ki) in assay [3] stood at 0.6 nM. That is a sub-nanomolar value.
Consider `O=C(CO)NC(Cn1cncn1)CP(=O)(O)O` (centres undefined), for which, in assay [2], the Kis was found to be 1.23 µM. In assay [1], this compound registered an IC50 of 910 nM. The compound further yielded an inhibition constant (Ki) in assay [3] of 230 nM.
As for `O=C(CCC1CCCC1)NC(Cn1cncn1)CP(=O)(O)O` (centres undefined), the Kis in assay [2] turned out to be 3.7 µM. Besides, in assay [1], half-maximal inhibition (IC50) required 3100 nM. Also, the Ki in assay [3] is 880 nM.
`O=C(NC(Cn1cncn1)CP(=O)(O)O)c1c(F)cccc1F` (centres undefined) returned a Kis in assay [2] of 5.8 µM. Also, the IC50 in assay [1] was 4600 nM. The Ki in assay [3] was 1150 nM.
With `O=C(NC(Cn1cncn1)CP(=O)(O)O)C1CC1` (centres undefined), the Kis in assay [2] stood at 19 µM. 17000 nM corresponded to half-maximal inhibition in assay [1] (IC50). The Ki in assay [3] came out at 4000 nM.
As for `CNC(=O)C(=O)NC(Cn1cncn1)CP(=O)(O)O` (centres undefined), the IC50 in assay [1] is more than 50000 nM.
Consider `CC(Oc1ccccc1)C(=O)NC(Cn1cncn1)CP(=O)(O)O` (centres undefined), for which the Kis in assay [2] was 1.22 µM. This compound gave an IC50 in assay [1] of 1500 nM. The affinity in assay [3], expressed as Ki, was 230 nM.
The compound `COCC(=O)NC(Cn1cncn1)CP(=O)(O)O` (centres undefined) came in with a Kis in assay [2] of 17 µM. 10000 nM corresponded to half-maximal inhibition in assay [1] (IC50). For the same compound, the affinity in assay [3], expressed as Ki, was 2200 nM.
In turn, `O=C(Cc1ccccc1)NC(Cn1cncn1)CP(=O)(O)O` (centres undefined) displayed a Kis in assay [2] of 3.9 µM. Besides, the midpoint of inhibition in assay [1], the IC50, lay at 2700 nM. Moreover, the affinity in assay [3], expressed as Ki, was 340 nM.
In assay [2], `CC(C)=CC(=O)NC(Cn1cncn1)CP(=O)(O)O` (centres undefined) yielded a Kis of 5.5 µM. In assay [1], this compound registered a half-maximal inhibitory concentration (IC50) of 4500 nM. Further, in assay [3], the Ki came out at 1300 nM.
Consider `O=C(CSc1ccccc1)NC(Cn1cncn1)CP(=O)(O)O` (centres undefined), for which the Kis in assay [2] was 1.26 µM. In addition, the IC50 in assay [1] was found to be 920 nM. In assay [3], this compound displayed a Ki of 250 nM.
On the same counts, the results for `O=C(COc1ccccc1)NC(Cn1cncn1)CP(=O)(O)O` (centres undefined) are 0.27 µM, 380 nM and 80 nM.
On to `O=C(COc1ccc(Cl)cc1)NC(Cn1cncn1)CP(=O)(O)O` (centres undefined), for which, in assay [2], the Kis stood at 2.12 µM. This compound returned an IC50 in assay [1] of 2000 nM. In assay [3], this compound yielded a Ki of 550 nM.
On the same counts, the results for `COC(=O)CCCC(=O)NC(Cn1cncn1)CP(=O)(O)O` (centres undefined) are 3.95 µM, 2800 nM and 700 nM.
For `CCCCc1ccc(C(=O)NC(Cn2cncn2)CP(=O)(O)O)cc1` (centres undefined) the same measures were 5.9 µM, 4100 nM and 1300 nM.
Regarding `O=C(Cc1cccs1)NC(Cn1cncn1)CP(=O)(O)O` (centres undefined), the Kis in assay [2] worked out at 2.4 µM. Moreover, half-maximal inhibition in assay [1] (IC50) required 3500 nM. Besides, the Ki in assay [3] is 560 nM.
The compound `O=C(NC(Cn1cncn1)CP(=O)(O)O)c1ccccc1` (centres undefined) registered a Kis in assay [2] of 100 µM. For the same compound, in assay [1], the concentration for half-maximal inhibition (IC50) was more than 50000 nM. Further, the Ki in assay [3] was 10000 nM.
On the same counts, the results for `O=C(/C=C/c1ccccc1)NC(Cn1cncn1)CP(=O)(O)O` (centres undefined) are 25 µM, 21000 nM and 4500 nM.
In the case of `CCCCCC(=O)NC(Cn1cncn1)CP(=O)(O)O` (centres undefined), the Kis in assay [2] stood at 1.22 µM. The compound also had an IC50 in assay [1] of 840 nM. This compound also had an inhibition constant (Ki) in assay [3] of 340 nM.
`CC1(CCC(=O)NC(Cn2cncn2)CP(=O)(O)O)SCCS1` (centres undefined): it took 800 nM to reach half-maximal inhibition in assay [1] (IC50).
With `NC(Cn1cncn1)CP(=O)(O)O` (centres undefined), the Ki in assay [3] came to 15 nM.
